In patent US7803375B2, “Methods and compositions for treating conditions of the eye” (Massachusetts Eye and Ear Infirmary, priority 2005, dated 2010):

Tests used:
[1] = typical; cited from earlier work
Fas receptor = assay: Retinal levels of Fas receptor after verteporfin PDT; assay type: in vivo; conditions: rat retina, FIG. 3

Row | Molecule | persistence in the target neovasculature [1] | retinal levels of the apoptotic death receptor Fas (Fas receptor)
1 | C=Cc1c(C)c2cc3nc(c(CC(=O)N[C@@H](CC(=O)O)C(=O)O)c4[nH]c(cc5nc(cc1[nH]2)C(C)=C5CC)c(C)c4C(=O)O)[C@@H](CCC(=O)O)[C@@H]3C [N-aspartyl chlorin e6] | about twenty | 
2 | CC(=O)[O-].CC(=O)[O-].CCc1c(CC)c2cc3nc(cnc4cc(OCCOCCOCCOC)c(OCCOCCOCCOC)cc4ncc4nc(cc1[n-]2)C(CCCO)=C4C)C(C)=C3CCCO.O.[Lu+3] [lutetium texaphyrin] | about twenty | 
3 | O=C([O-])c1c(Cl)c(Cl)c(Cl)c(Cl)c1-c1c2cc(I)c(=O)c(I)c-2oc2c(I)c([O-])c(I)cc12.[Na+].[Na+] [rose bengal] | about ten | 
4 | benzoporphyrin derivative | about fifty | 
5 | verteporfin |  | increases
